According to ChEMBL document CHEMBL1201862, “PubChem BioAssay data set” (2004):
Several values for one entry are separate records, joined by “and”; a condition that tells them apart may be missing. Identical values can stand only once.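 48-hour exposure; five concentrations; linearly interpolated endpoints. At the GI50, growth is halved.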 Activity calls are given as the source filed them. Cut-off read from the data, not from the text of the source: active = GI50 up to about 1.1 µM and inactive = higher.

Tests used:
Experiment in all cases: inhibition of tumour cell growth, NCI panel, 48 h
786-0 = system: 786-0
A498 = system: A498
A549 = system: A549
ACHN = system: ACHN
BT-549 = system: BT-549
CAKI-1 = system: CAKI-1
CCRF-CEM = system: CCRF-CEM
COLO 205 = system: COLO 205
DU-145 = system: DU-145
EKVX = system: EKVX
HCC 2998 = system: HCC 2998
HCT-116 = system: HCT-116
HCT-15 = system: HCT-15
HL-60 = system: HL-60
HOP-62 = system: HOP-62
HOP-92 = system: HOP-92
HT-29 = system: HT-29
Hs-578T = system: Hs-578T
IGROV-1 = system: IGROV-1
K562 = system: K562
KM12 = system: KM12
LOX IMVI = system: LOX IMVI
M14 = system: M14
MCF7 = system: MCF7
MDA-MB-231 = system: MDA-MB-231
MDA-MB-435 = system: MDA-MB-435
MDA-N = system: MDA-N
MOLT-4 = system: MOLT-4
Malme-3M = system: Malme-3M
NCI-H226 = system: NCI-H226
NCI-H23 = system: NCI-H23
NCI-H460 = system: NCI-H460
NCI-H522 = system: NCI-H522
NCI/ADR-RES = system: NCI/ADR-RES
OVCAR-3 = system: OVCAR-3
OVCAR-4 = system: OVCAR-4
OVCAR-5 = system: OVCAR-5
OVCAR-8 = system: OVCAR-8
PC-3 = system: PC-3
RPMI-8226 = system: RPMI-8226
RXF 393 = system: RXF 393
SF-268 = system: SF-268
SF-295 = system: SF-295
SF-539 = system: SF-539
SK-MEL-28 = system: SK-MEL-28
SK-MEL-2 = system: SK-MEL-2
SK-MEL-5 = system: SK-MEL-5
SK-OV-3 = system: SK-OV-3
SN12C = system: SN12C
SNB-19 = system: SNB-19
SNB-75 = system: SNB-75
SR = system: SR
SW-620 = system: SW-620
TK-10 = system: TK-10
U-251 = system: U-251
UACC-257 = system: UACC-257
UACC-62 = system: UACC-62
UO-31 = system: UO-31
T47D = system: T47D

Structure (SMILES): C/C(=N/NC(=S)Nc1cccc(C)c1)c1ccccn1
- GI50 (786-0): 21.7 nM (active)
- GI50 (A498): 1.56 µM (inactive)
- GI50 (A549): 1.87 µM (inactive)
- GI50 (ACHN): < 0.0481 µM (active)
- GI50 (BT-549): 3.87 µM (inactive)
- GI50 (CAKI-1): < 0.0532 µM (active)
- GI50 (CCRF-CEM): < 0.01 µM (active)
- GI50 (COLO 205): < 0.01 µM (active)
- GI50 (DU-145): 2.19 µM (inactive)
- GI50 (EKVX): 0.0685 µM (active)
- GI50 (HCC 2998): 1.91 µM (inactive)
- GI50 (HCT-116): < 10 nM (active)
- GI50 (HCT-15): 0.0119 µM
- GI50 (HL-60): < 10 nM (active)
- GI50 (HOP-62): 0.0341 µM (active)
- GI50 (HOP-92): 1.17 µM (inactive)
- GI50 (HT-29): < 10 nM (active)
- GI50 (Hs-578T): 3.82 µM (inactive)
- GI50 (IGROV-1): < 10 nM (active)
- GI50 (K562): < 0.01 µM (active)
- GI50 (KM12): 141 nM (active)
- GI50 (LOX IMVI): < 12.1 nM (active)
- GI50 (M14): < 0.013 µM (active)
- GI50 (MCF7): < 10 nM (active)
- GI50 (MDA-MB-231): < 0.01 µM (active)
- GI50 (MDA-MB-435): 1.35 µM (inactive)
- GI50 (MDA-N): 1.35 µM (inactive)
- GI50 (MOLT-4): < 0.01 µM (active)
- GI50 (Malme-3M): 0.319 µM (active)
- GI50 (NCI-H226): 0.0582 µM (active)
- GI50 (NCI-H23): < 10 nM (active)
- GI50 (NCI-H460): 284 nM (active)
- GI50 (NCI-H522): 0.238 µM (active)
- GI50 (NCI/ADR-RES): < 0.01 µM (active)
- GI50 (OVCAR-3): < 0.01 µM (active)
- GI50 (OVCAR-4): 1.98 µM (inactive)
- GI50 (OVCAR-5): 0.0392 µM (active)
- GI50 (OVCAR-8): < 18.3 nM (active)
- GI50 (PC-3): < 10 nM (active)
- GI50 (RPMI-8226): < 10 nM (active)
- GI50 (RXF 393): 1.12 µM (inactive)
- GI50 (SF-268): 210 nM (active)
- GI50 (SF-295): 0.296 µM (active)
- GI50 (SF-539): 1.57 µM (inactive)
- GI50 (SK-MEL-28): 1.71 µM (inactive)
- GI50 (SK-MEL-2): 1.68 µM (inactive)
- GI50 (SK-MEL-5): 61 nM (active)
- GI50 (SK-OV-3): 0.025 µM (active)
- GI50 (SN12C): 0.226 µM (active)
- GI50 (SNB-19): 977 nM (active)
- GI50 (SNB-75): 2.11 µM (inactive)
- GI50 (SR): < 10 nM (active)
- GI50 (SW-620): < 10 nM (active)
- GI50 (TK-10): 0.274 µM (active)
- GI50 (U-251): 0.0208 µM (active)
- GI50 (UACC-257): < 0.01 µM (active)
- GI50 (UACC-62): 0.331 µM (active)
- GI50 (UO-31): 285 nM (active)

Structure (SMILES): N#Cc1c(-c2ccccc2)cc(-c2ccccc2)n(C2OC(CO)C(O)C(O)C2O)c1=S (configuration not stated)
- GI50 (786-0): 55.5 µM (inactive) and 38.5 µM (inactive)
- GI50 (A498): 19.7 µM (inactive)
- GI50 (A549): 32.7 µM (inactive) and 46.1 µM (inactive)
- GI50 (BT-549): 32.1 µM (inactive) and 25.6 µM (inactive)
- GI50 (EKVX): > 100 µM (inactive)
- GI50 (HCT-116): 37.4 µM (inactive) and 19.7 µM (inactive)
- GI50 (HL-60): 36.2 µM (inactive) and 38.7 µM (inactive)
- GI50 (HT-29): 23.1 µM (inactive) and 34.4 µM (inactive)
- GI50 (Hs-578T): 21.1 µM (inactive) and 31.9 µM (inactive)
- GI50 (IGROV-1): 45.5 µM (inactive) and 31 µM (inactive)
- GI50 (KM12): 53.2 µM (inactive) and 48.2 µM (inactive)
- GI50 (LOX IMVI): 15 µM (inactive) and 26.8 µM (inactive)
- GI50 (MCF7): 27.5 µM (inactive) and 43.4 µM (inactive)
- GI50 (MDA-MB-435): 21 µM (inactive) and 25.4 µM (inactive)
- GI50 (MDA-N): 45 µM (inactive) and 23.2 µM (inactive)
- GI50 (NCI-H23): 23.4 µM (inactive) and 29 µM (inactive)
- GI50 (NCI-H460): 42.1 µM (inactive) and 28.6 µM (inactive)
- GI50 (NCI/ADR-RES): 72.3 µM (inactive)
- GI50 (OVCAR-8): 39.1 µM (inactive) and 32.7 µM (inactive)
- GI50 (PC-3): 17.1 µM (inactive) and 29.6 µM (inactive)
- GI50 (RPMI-8226): 29.2 µM (inactive) and 21.9 µM (inactive)
- GI50 (RXF 393): 40.3 µM (inactive)
- GI50 (SF-268): 34.2 µM (inactive) and 27.4 µM (inactive)
- GI50 (SK-MEL-5): 30.4 µM (inactive) and 15.7 µM (inactive)
- GI50 (SNB-19): 38 µM (inactive) and 33 µM (inactive)
- GI50 (SNB-75): 33.2 µM (inactive) and 51.2 µM (inactive)
- GI50 (SR): 30.8 µM (inactive) and 30.9 µM (inactive)
- GI50 (SW-620): 37.2 µM (inactive) and 23.6 µM (inactive)
- GI50 (TK-10): 70.3 µM (inactive)
- GI50 (U-251): 18.8 µM (inactive)
- GI50 (UO-31): 41.2 µM (inactive) and 34.3 µM (inactive)

Structure (SMILES): COc1cnc2cc(C(=O)O)c3ccccc3c2c1
- GI50 (786-0): > 100000 nM (inactive)
- GI50 (A498): > 100 µM (inactive)
- GI50 (A549): > 100 µM (inactive)
- GI50 (ACHN): > 100 µM (inactive)
- GI50 (CAKI-1): > 100 µM (inactive)
- GI50 (CCRF-CEM): > 100 µM (inactive)
- GI50 (COLO 205): > 100 µM (inactive)
- GI50 (DU-145): > 100 µM (inactive)
- GI50 (EKVX): > 100 µM (inactive)
- GI50 (HCC 2998): > 100 µM (inactive)
- GI50 (HCT-116): > 100000 nM (inactive)
- GI50 (HCT-15): > 100 µM
- GI50 (HL-60): > 100000 nM (inactive)
- GI50 (HOP-62): > 100 µM (inactive)
- GI50 (HOP-92): > 100 µM (inactive)
- GI50 (HT-29): > 100000 nM (inactive)
- GI50 (Hs-578T): > 100 µM (inactive)
- GI50 (IGROV-1): > 100000 nM (inactive)
- GI50 (K562): > 100 µM (inactive)
- GI50 (KM12): > 100000 nM (inactive)
- GI50 (LOX IMVI): > 100000 nM (inactive)
- GI50 (M14): 92.5 µM (inactive)
- GI50 (MCF7): > 100000 nM (inactive)
- GI50 (MDA-MB-231): > 100 µM (inactive)
- GI50 (MDA-MB-435): > 100 µM (inactive)
- GI50 (MDA-N): > 100 µM (inactive)
- GI50 (MOLT-4): > 100 µM (inactive)
- GI50 (Malme-3M): > 100 µM (inactive)
- GI50 (NCI-H226): > 100 µM (inactive)
- GI50 (NCI-H23): > 100000 nM (inactive)
- GI50 (NCI-H460): > 100000 nM (inactive)
- GI50 (NCI-H522): > 100 µM (inactive)
- GI50 (NCI/ADR-RES): > 100 µM (inactive)
- GI50 (OVCAR-3): > 100 µM (inactive)
- GI50 (OVCAR-4): > 100 µM (inactive)
- GI50 (OVCAR-5): > 100 µM (inactive)
- GI50 (OVCAR-8): > 100000 nM (inactive)
- GI50 (PC-3): > 100000 nM (inactive)
- GI50 (RPMI-8226): 28100 nM (inactive)
- GI50 (RXF 393): > 100 µM (inactive)
- GI50 (SF-268): > 100000 nM (inactive)
- GI50 (SF-295): > 100 µM (inactive)
- GI50 (SF-539): > 100 µM (inactive)
- GI50 (SK-MEL-28): > 100 µM (inactive)
- GI50 (SK-MEL-2): > 100 µM (inactive)
- GI50 (SK-MEL-5): > 100000 nM (inactive)
- GI50 (SK-OV-3): > 100 µM (inactive)
- GI50 (SN12C): > 100 µM (inactive)
- GI50 (SNB-19): > 100000 nM (inactive)
- GI50 (SNB-75): 58.3 µM (inactive)
- GI50 (SR): > 100000 nM (inactive)
- GI50 (SW-620): > 100000 nM (inactive)
- GI50 (T47D): > 100 µM (inactive)
- GI50 (TK-10): > 100 µM (inactive)
- GI50 (U-251): > 100 µM (inactive)
- GI50 (UACC-257): > 100 µM (inactive)
- GI50 (UACC-62): > 100 µM (inactive)
- GI50 (UO-31): > 100000 nM (inactive)
